From patent US10301352B2, “Peptidomimetics with antiangiogenic activity” (UNIWERSYTET WARSZAWSKI, priority 2013, dated 2019)
Non-standard residues stand in square brackets, D forms with d. Residues, ends and D or L forms follow the SMILES beside them. No end group written: not given here. ξ: configuration not given here. hArg = N=C(N)NCCCC[C@H](N)C(=O)O; Dab = NCC[C@H](N)C(=O)O; Dap = NC[C@H](N)C(=O)O; ξP = O=C(O)C1CCCN1

Key:
NRP-1 = target: T1, NRP-1 (Rattus norvegicus, UniProt Q9QWJ9); assay: VEGF165 displacement assay (inhibition of VEGF165 to NRP-1 binding); conditions: biotinylated VEGF165 1 nM; for inhibition at 0.03 µM: compound 0.03 μM; for inhibition at 0.1 µM: compound 0.1 μM; for inhibition at 0.3 µM: compound 0.3 μM; for inhibition at 1 µM: compound 1 μM
T1 construct: purchased R&D Systems
T1 sequence (Q9QWJ9 with tags, fused parts or gaps limits assumed): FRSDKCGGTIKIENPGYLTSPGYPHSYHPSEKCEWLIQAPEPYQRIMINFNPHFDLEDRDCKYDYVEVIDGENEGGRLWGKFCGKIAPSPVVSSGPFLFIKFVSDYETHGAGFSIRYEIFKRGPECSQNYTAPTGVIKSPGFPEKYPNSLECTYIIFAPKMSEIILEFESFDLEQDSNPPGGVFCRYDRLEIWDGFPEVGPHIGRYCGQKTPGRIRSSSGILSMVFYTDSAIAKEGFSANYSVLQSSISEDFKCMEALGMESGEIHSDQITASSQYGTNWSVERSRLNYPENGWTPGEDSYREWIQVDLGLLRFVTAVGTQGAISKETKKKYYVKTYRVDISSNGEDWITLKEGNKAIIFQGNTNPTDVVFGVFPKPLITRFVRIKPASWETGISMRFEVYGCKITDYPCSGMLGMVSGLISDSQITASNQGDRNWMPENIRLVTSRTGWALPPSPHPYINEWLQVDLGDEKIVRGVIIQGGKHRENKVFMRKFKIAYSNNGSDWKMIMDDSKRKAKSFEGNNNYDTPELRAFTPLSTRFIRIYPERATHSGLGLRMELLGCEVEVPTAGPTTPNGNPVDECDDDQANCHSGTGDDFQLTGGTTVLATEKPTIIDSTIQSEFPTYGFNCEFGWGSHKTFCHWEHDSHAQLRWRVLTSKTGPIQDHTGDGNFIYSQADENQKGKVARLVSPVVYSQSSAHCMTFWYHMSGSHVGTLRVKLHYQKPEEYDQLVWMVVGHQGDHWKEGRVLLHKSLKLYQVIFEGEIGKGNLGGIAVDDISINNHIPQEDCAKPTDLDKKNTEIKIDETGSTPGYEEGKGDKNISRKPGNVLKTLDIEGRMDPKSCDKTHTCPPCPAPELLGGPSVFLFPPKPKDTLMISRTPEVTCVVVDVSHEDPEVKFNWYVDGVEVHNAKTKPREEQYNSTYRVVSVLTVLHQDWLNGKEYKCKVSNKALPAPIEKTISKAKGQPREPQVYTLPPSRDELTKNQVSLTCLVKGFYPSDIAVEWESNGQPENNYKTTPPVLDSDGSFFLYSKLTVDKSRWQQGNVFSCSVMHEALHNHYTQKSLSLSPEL
Procedure: Antiangiogenic properties were evaluated in vitro by measuring the inhibition of VEGF165 to NRP-1 binding. This test makes it possible to evaluate the % inhibition by the evaluated compound at a particular concentration.
The evaluation of the inhibitory effect of peptidomimetics were performed using an enzymatic method denoting the spectrophotometric displacement of the VEGF165 ligand from a bond with the specific receptor Neuropilin-1 by the evaluated compound. The studies were performed using polystyrene 96-well plates (Maxisorb, Nunc.).
To evaluate the biological inhibitory activity of selected molecules, the surfaces of flat bottom polystyrene wells of 96-wells plates (Maxisorb, Nunc,) was treated with 100 ul of 2 ug/ml anti-Fc IgG (Sigma-Aldrich, Saint Quentin Fallavier, France) in phosphate buffer saline (PBS, Sigma) overnight at 4° C. After washing and saturation of non-specific interactions with bovine serum albumin (BSA, Sigma), purified recombinant rat NRP1-Fc (20 ng/well, R&D Systems, Abingdon, UK) in 50 μl PBS-BSA 0.1%-tween-80 0.005% (PBT), […] VEGF165 (final concentration 1 nM, R&D Systems) diluted in PBT containing 2 μg/ml of heparin (Sigma) were successively added to a final volume of 150 μl. After an overnight incubation at 4° C., the wells were washed with PBT and treated with streptavidin-HRP polymer (Sigma) followed by washing and addition of ABTS substrate (Sigma). The DO measures were performed at 415 nm in reference to 470 nm after 15 minutes-2 h of reaction. […] In the control wells, the tested compound was absent but the respective concentration of DMSO was maintained. The heptapeptide A7R (ATWLPPR) was routinely used as a positive control for each plate.

[1] = In vitro peptidomimetic stability in human plasma (LC/MS); assay type: in vitro ADME; conditions: 37° C.; for half-life at 0.35 μmol/mL: human plasma from healthy donors, TFA salt, read-out: half-life time; for main enzymatic cleavage / degradation products: human plasma
Procedure: The stability of two peptidomimetics: Lys(hArg)-Dap-Pro-Arg and Lys(hArg-Pro-Dab-Arg were tested in plasma samples obtained from healthy donors. Peptidomimetics stock solutions were prepared by dissolving the TFA salt of proper peptidomimetic in water to obtain a final peptidomimetic concentration of 0.7 μmol/mL. In a Eppendorf tube, samples of 100 μL of human plasma were temperature-equilibrated at 37° C. for 15 minutes before adding 100 μL of peptidomimetic stock solution. Three tubes allowed the analysis for each time point. The initial time was recorded and at known time intervals (every 10 minutes from 0 sec to 3 h), 400 μL of solution of TCA in 99.8% ethanol (CTCA=0.2%) was added to the reaction solution for precipitation of the serum proteins. The cloudy reaction sample was shaken and then spun at 2000 g to pellet the precipitated serum proteins. The reaction supernatant was then analyzed by LC/MS analysis (using a RP-HPLC-ESI-MS system).

Row | Compound | inhibition at 0.03 µM (NRP-1) [%] | inhibition at 0.1 µM (NRP-1) [%] | inhibition at 0.3 µM (NRP-1) [%] | inhibition at 1 µM (NRP-1) [%] | inhibition at 3 µM (NRP-1; compound 3 μM) [%] | inhibition at 10 µM (NRP-1; compound 10 μM) [%] | inhibition at 30 µM (NRP-1; compound 30 μM) [%] | half-life at 0.35 μmol/mL [1] [h] | main enzymatic cleavage / degradation products [1] | % inhibition of VEGF165 to NRP-1 binding (NRP-1; compound 3 μM) [%] | % inhibition of VEGF165 to NRP-1 binding (NRP-1; compound 10 μM) [%] | % inhibition of VEGF165 to NRP-1 binding (NRP-1; compound 30 μM) [%]
1 | N=C(N)NCCCC[C@H](N)C(=O)NCCCC[C@H](N)C(=O)N1CCCC1C(=O)N[C@@H](CCN)C(=O)N[C@@H](CCCNC(=N)N)C(=O)O (stereo partly drawn) [compound 2, Lys(hArg)-Pro-Dab-Arg] (H-K(hArg)[ξP][Dab]R-OH) | 13.7 | 35.4 | 62.2 | 82.6 | 93.6 | 98.3 | 100 | 0.667 | to Lys(hArg)-Pro and Dab-Arg | – | – | –
2 | N=C(N)NCCCC[C@H](N)C(=O)NCCCC[C@H](N)C(=O)N[C@@H](CN)C(=O)N1CCC[C@H]1C(=O)N[C@@H](CCCNC(=N)N)C(=O)O [compound 3, Lys(hArg)-Dap-Pro-Arg] (H-K(hArg)[Dap]PR-OH) | 11.6 | 33 | 59.4 | 82 | 93.4 | 96.8 | 99.7 | ~2.33 | between the first and second residue | – | – | –
3 | N=C(N)NCCCC[C@H](N)C(=O)NCCCC[C@H](N)C(=O)N[C@@H](CCN)C(=O)N1CCC[C@H]1C(=O)N[C@@H](CCCNC(=N)N)C(=O)O [compound 4, Lys(hArg)-Dab-Pro-Arg] (H-K(hArg)[Dab]PR-OH) | – | 21.6 | 47.8 | 82.4 | 91.4 | 98.5 | 100 | – | – | – | – | –
4 | ATWLPPR [A7R, reference compound] | – | – | – | – | – | – | – | – | – | 61.2 | 76.9 | 85.5
